# Experimental data from patent US20030211183A1, “Skin-improving agent” (Kyowa Hakko Kogyo Co., Ltd., priority 1999, published 2003).
# Tested on: Human neonate-derived fibroblasts
# Assay: Collagen synthesis-promoting activity on human fibroblasts (3H-glycine incorporation)
# Type: cell-based
# Conditions: 300 μmol/l
# Method: 201-271, Kodansha Scientific (1986).
# Human neonate-derived fibroblasts (Sanko Junyaku Co., Ltd.) were suspended in DMEM containing 10% fetal bovine serum [Virology, 8, 396 (1959)] and cultured at 37° C. in 5% CO2 to the stationary phase. To the resulting culture were added ^3H-labeled glycine and a test substance, followed by further culturing for 72 hours. After 500 μmol/l phenylmethanesulfonyl fluoride (PMSF) was added to the obtained culture, the cells and the medium were collected, followed by disruption with a sonicator to extract proteins. To the extract were added 100 μmol/l bovine serum albumin (BSA) and 10% trichloroacetic acid (TCA), and the resulting mixture was centrifuged at 3000 rpm for 5 minutes to collect the precipitate. […]
# After the reaction mixture was separated by ultrafiltration (molecular weight: 10,000), the radioactivity of the protein fraction in the filtrate (CDP) was measured as the amount of newly synthesized collagen. Then, the radioactivity of the protein fraction which was not filtered (NCDP) was measured, and the collagen synthesis ratio was calculated according to equation 2. The relative collagen synthesis-promoting activity (the change in collagen synthesis) was calculated according to equation 3 as the relative value of the collagen synthesis ratio in the presence of a test substance based on the control. […]
smiles,measurement,value
"Oc1cc(O)c2c(c1)O[C@H](c1ccc(O)c(O)c1)[C@H](O)[C@H]2c1c(O)cc(O)c2c1O[C@H](c1ccc(O)c(O)c1)[C@H](O)C2 [PB2, procyanidin B-2 [epicatechin-(4β→8)-epicatechin]]",Amount of collagen synthesized compared with control (in words),increased
